Test results as given in ChEMBL document CHEMBL1201862, “PubChem BioAssay data set” (2004).
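Cells were grown in 96-well plates and exposed to each compound for 48 hours at five concentrations; endpoints were interpolated linearly between bracketing concentrations, or set to the highest concentration if not reached. The concentration for 50% growth inhibition is given as GI50.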 Activity calls are given as the source filed them. Rule as the data show it: active = GI50 up to about 1.1 µM and inactive = higher.

Columns and labels:
Test in all cases: DTP human tumour cell line panel, 48 h
[1] = test system: M14
[2] = test system: HT-29
[3] = test system: OVCAR-4
[4] = test system: CAKI-1
[5] = test system: RPMI-8226
[6] = test system: UACC-62
[7] = test system: UO-31
[8] = test system: HCT-15
[9] = test system: MOLT-4
[10] = test system: K562
[11] = test system: U-251
[12] = test system: NCI-H226
[13] = test system: UACC-257
[14] = test system: SF-295
[15] = test system: SK-OV-3
[16] = test system: KM12
[17] = test system: A549
[18] = test system: SR
[19] = test system: RXF 393
[20] = test system: SF-539

Row | SMILES | GI50 [1] | GI50 [2] | GI50 [3] | GI50 [4] | GI50 [5] | GI50 [6] | GI50 [7] | GI50 [8] | GI50 [9] | GI50 [10] | GI50 [11] | GI50 [12] | GI50 [13] | GI50 [14] | GI50 [15] | GI50 [16] | GI50 [17] | GI50 [18] | GI50 [19] | GI50 [20]
1 | O=C1CCCN1C(=O)CS(=O)(=O)c1ccccc1 | > 100 µM (inactive) | > 100 µM (inactive) | > 100 µM (inactive) | > 100 µM (inactive) | > 100 µM (inactive) | > 100 µM (inactive) | > 100 µM (inactive) | > 100 µM | > 100 µM (inactive) | > 100 µM (inactive) | > 100 µM (inactive) | > 100 µM (inactive) | > 100 µM (inactive) | > 100 µM (inactive) | > 100 µM (inactive) | > 100 µM (inactive) | > 100 µM (inactive) | > 100 µM (inactive) | > 100 µM (inactive) | 
2 | CSc1nn(C)cc2ncnc1-2 | > 100 µM (inactive) | > 100 µM (inactive) |  | > 100 µM (inactive) | > 100 µM (inactive) | > 100 µM (inactive) | > 100 µM (inactive) | > 100 µM | > 100 µM (inactive) | > 100 µM (inactive) | > 100 µM (inactive) | > 100 µM (inactive) | > 100 µM (inactive) | > 100 µM (inactive) |  | > 100 µM (inactive) | > 100 µM (inactive) | 97.1 µM (inactive) | > 100 µM (inactive) | > 100 µM (inactive)
3 | COC(=O)C(C#N)C1NC(=O)c2ccccc21 (stereo unspecified) | > 100 µM (inactive) | > 100 µM (inactive) | > 100 µM (inactive) |  | > 100 µM (inactive) | > 100 µM (inactive) | > 100 µM (inactive) | > 100 µM | > 100 µM (inactive) | > 100 µM (inactive) | > 100 µM (inactive) | > 100 µM (inactive) | > 100 µM (inactive) | > 100 µM (inactive) | > 100 µM (inactive) | > 100 µM (inactive) | > 100 µM (inactive) | > 100 µM (inactive) | > 100 µM (inactive) | > 100 µM (inactive)
4 | COc1c(Cl)nc2ccccc2c1N=[N+]=[N-] | > 100 µM (inactive) | > 100 µM (inactive) | > 100 µM (inactive) | 49.4 µM (inactive) | 95.7 µM (inactive) | 54.2 µM (inactive) | 17.3 µM (inactive) |  | 19.2 µM (inactive) | 83.9 µM (inactive) | > 100 µM (inactive) |  | > 100 µM (inactive) | > 100 µM (inactive) | > 100 µM (inactive) | > 100 µM (inactive) | > 100 µM (inactive) | 80 µM (inactive) | 30.1 µM (inactive) | 71.9 µM (inactive)
5 | CN(C)Cc1cc(/C(=C(\C#N)c2ccccc2)c2ccc(O)cc2)ccc1O | 10.4 µM (inactive) | 15.4 µM (inactive) | 21.5 µM (inactive) | 20.9 µM (inactive) | 20.2 µM (inactive) | 17.8 µM (inactive) | 20.4 µM (inactive) | 25.4 µM | 15.3 µM (inactive) | 20 µM (inactive) | 17.9 µM (inactive) | 21.9 µM (inactive) | 15.6 µM (inactive) | 18.4 µM (inactive) | 27 µM (inactive) | 19.9 µM (inactive) | 24.6 µM (inactive) | 12.9 µM (inactive) | 3.96 µM (inactive) | 
6 | Cc1cn(C2CC(O)C(COC(=O)NCCC(F)(F)C(F)(F)C(F)(F)C(F)(F)F)O2)c(=O)[nH]c1=O (stereo unspecified) | > 100 µM (inactive) | > 100 µM (inactive) | > 100 µM (inactive) | > 100 µM (inactive) |  | > 100 µM (inactive) | > 100 µM (inactive) |  | > 100 µM (inactive) | > 100 µM (inactive) | > 100 µM (inactive) | > 100 µM (inactive) | > 100 µM (inactive) | > 100 µM (inactive) | > 100 µM (inactive) | > 100 µM (inactive) | > 100 µM (inactive) | > 100 µM (inactive) | 78.5 µM (inactive) | > 100 µM (inactive)
7 | O=C1OC(=O)C2C3C=CC(C12)C1C2C=CC2C31 (stereo unspecified) |  | > 100 µM (inactive) | > 100 µM (inactive) | > 100 µM (inactive) |  |  |  |  | > 100 µM (inactive) | > 100 µM (inactive) | > 100 µM (inactive) | > 100 µM (inactive) | > 100 µM (inactive) | > 100 µM (inactive) | > 100 µM (inactive) | > 100 µM (inactive) | > 100 µM (inactive) | > 100 µM (inactive) | > 100 µM (inactive) | > 100 µM (inactive)
8 | COc1cc(OC)c([C@@H]2OC(=O)C3C2C(=O)O[C@H]3c2cc(OC)c(OC)cc2OC)cc1OC (stereo partly specified) | > 100 µM (inactive) | > 100 µM (inactive) | 45.4 µM (inactive) | > 100 µM (inactive) | > 100 µM (inactive) | > 100 µM (inactive) | > 100 µM (inactive) | > 100 µM | > 100 µM (inactive) | > 100 µM (inactive) | > 100 µM (inactive) |  | > 100 µM (inactive) | > 100 µM (inactive) | > 100 µM (inactive) | > 100 µM (inactive) | > 100 µM (inactive) | 51.6 µM (inactive) | > 100 µM (inactive) | > 100 µM (inactive)
9 | COc1ccc(/C=N/NC(=O)c2ccccc2Nc2ccccc2C(=O)N/N=C/c2ccc(OC)cc2)cc1 | > 100 µM (inactive) | > 100 µM (inactive) | > 100 µM (inactive) | > 100 µM (inactive) | > 100 µM (inactive) | > 100 µM (inactive) | > 100 µM (inactive) | > 100 µM | > 100 µM (inactive) | > 100 µM (inactive) | > 100 µM (inactive) | > 100 µM (inactive) | > 100 µM (inactive) | > 100 µM (inactive) | > 100 µM (inactive) | > 100 µM (inactive) | > 100 µM (inactive) | > 100 µM (inactive) | > 100 µM (inactive) | 
10 | CSC(=S)N/N=C(\C)c1cccc(C)n1 | 0.312 µM (active) | 0.133 µM (active) | 0.497 µM (active) | 1.1 µM (active) |  | 0.472 µM (active) | 1.21 µM (inactive) | 0.375 µM | 0.123 µM (active) | 0.042 µM (active) | 0.776 µM (active) | 0.824 µM (active) | 0.92 µM (active) | 1.49 µM (inactive) | 0.719 µM (active) | 2.26 µM (inactive) | 0.762 µM (active) | 0.23 µM (active) | 0.998 µM (active) | 1.17 µM (inactive)
11 | COc1cc2ccc1-c1cc(ccc1O)CC1c3cc4c(cc3CCN1C)Oc1c(OC)cc3c(c1O4)C(C2)N(C)CC3 (stereo unspecified) | 1.82 µM (inactive) | 1.73 µM (inactive) | 1.96 µM (inactive) | 2.52 µM (inactive) | 1.91 µM (inactive) | 2 µM (inactive) | 1.8 µM (inactive) | 1.68 µM | 1.83 µM (inactive) | 1.44 µM (inactive) | 1.69 µM (inactive) | 2.22 µM (inactive) | 1.72 µM (inactive) | 1.81 µM (inactive) |  | 1.73 µM (inactive) | 1.84 µM (inactive) | 1.85 µM (inactive) | 1.67 µM (inactive) | 1.79 µM (inactive)
12 | NC1=NS(=O)(=O)Nc2nc(-c3ccc([N+](=O)[O-])o3)[nH]c21 | 14.9 µM (inactive) | 19.4 µM (inactive) | 17.1 µM (inactive) | 21.3 µM (inactive) | 10.7 µM (inactive) | 15.9 µM (inactive) | 16.2 µM (inactive) | 19.9 µM | 9.62 µM (inactive) | 5.38 µM (inactive) | 16.9 µM (inactive) |  |  | 16.3 µM (inactive) | > 10 µM (inactive) | 18.6 µM (inactive) | > 100 µM (inactive) | 4.73 µM (inactive) | 12.9 µM (inactive) | 17.3 µM (inactive)
13 | COc1cc(C=O)ccc1Oc1nnnn1-c1ccccc1 | 31.8 µM (inactive) | 86.7 µM (inactive) | 50.9 µM (inactive) | 31.3 µM (inactive) | 32.8 µM (inactive) |  | 94.4 µM (inactive) | 62.5 µM | 23.1 µM (inactive) | 34.7 µM (inactive) | 85.3 µM (inactive) | < 0.01 µM (active) | > 100 µM (inactive) | > 100 µM (inactive) | > 100 µM (inactive) | 55 µM (inactive) | > 100 µM (inactive) | 18.9 µM (inactive) | > 100 µM (inactive) | 
14 | CCO/N=[N+](\[O-])N(CC)CC | > 100 µM (inactive) | > 100 µM (inactive) |  | > 100 µM (inactive) |  | > 100 µM (inactive) | > 100 µM (inactive) | > 100 µM | > 100 µM (inactive) | > 100 µM (inactive) |  | > 100 µM (inactive) | > 100 µM (inactive) | > 100 µM (inactive) | > 100 µM (inactive) | > 100 µM (inactive) | > 100 µM (inactive) | > 100 µM (inactive) | > 100 µM (inactive) | > 100 µM (inactive)
15 | CN(Cc1cnc2c(N)nc(N)nc2n1)c1ccc(Cl)cc1 | 73.8 µM (inactive) |  |  | > 100 µM (inactive) | > 100 µM (inactive) | 24.4 µM (inactive) | 47.1 µM (inactive) | 71.6 µM | > 100 µM (inactive) | > 100 µM (inactive) | > 100 µM (inactive) | 1.91 µM (inactive) | 78.5 µM (inactive) | 72.1 µM (inactive) | 26.2 µM (inactive) | > 100 µM (inactive) |  | 62.2 µM (inactive) | 17 µM (inactive) | 24.3 µM (inactive)
16 | C1=Cc2cccc3occ(c23)C=C1 | > 100 µM (inactive) | 35.1 µM (inactive) | 56.9 µM (inactive) | > 100 µM (inactive) |  | 39.3 µM (inactive) | 41.8 µM (inactive) | 48 µM | 25.6 µM (inactive) | 16.3 µM (inactive) | 36.3 µM (inactive) | 24.1 µM (inactive) | > 100 µM (inactive) | > 100 µM (inactive) | > 100 µM (inactive) | 43 µM (inactive) | > 100 µM (inactive) | 15.8 µM (inactive) | 25.8 µM (inactive) | 37.4 µM (inactive)
